Reference: patent US9199943B2, “2-(poly-substituted aryl)-6-amino-5-halo-4-pyrimidinecarboxylic acids and their use as herbicides” (Dow AgroSciences, LLC., priority 2006, dated 2015)

What was measured:
Type in all cases: in vivo
[1] = test system: CYPDI = Cyperus difformis; assay: Herbicidal activity in transplanted paddy rice, Cyperus difformis; conditions: 480 h, water-injected paddy, after 20-22 days; for pest or weed control at 17.5 g/ha: 17.5 g ai/ha; for pest or weed control at 70 g/ha: 70 g ai/ha; for pest or weed control at 140 g/ha: 140 g ai/ha; for pest or weed control at 35 g/ha: 35 g ai/ha
Protocol: (§1) Weed seeds or nutlets of the desired test plant species were planted in puddled soil (mud) prepared by mixing a non-sterilized mineral soil (28 percent silt, 18 percent clay, and 54 percent sand, with a pH of about 7.3 to 7.8 and an organic matter content of about 1.0 percent) and water at a ratio of 100 kg of soil to 19 L of water. The prepared mud was dispensed in 250 mL aliquots into 480 mL non-perforated plastic pots with a surface area of 91.6 square centimeters leaving a headspace of 3 centimeters in each pot. Rice seeds were planted in Sun Gro MetroMix® 306 planting mixture, which typically has a pH of 6.0 to 6.8 and an organic matter content of about 30 percent, in plastic plug trays. Seedlings at the second or third leaf stage of growth were transplanted into 650 mL of mud contained in 960 mL non-perforated plastic pots with a surface area of 91.6 square centimeters 4 days prior to herbicide application. The paddy was created by filling the 3 centimeter headspace of the pots with water. When required to ensure good germination and healthy plants, a fungicide treatment and/or other chemical or physical treatment was applied. The plants were grown for 4-14 days in a greenhouse with an approximate 14 hour photoperiod which was maintained at about 29° C. during the day and 26° C. during the night. Nutrients were added as Osmocote (17:6:10, N:P:K+minor nutrients) at 2 g (grams) per cup. Water was added on a regular basis to maintain the paddy flood, and supplemental lighting was provided with overhead metal halide 1000-Watt lamps as necessary. The plants were employed for testing when they reached the second or third true leaf stage. A weighed amount, determined by the highest rate to be tested, of each test compound was placed in a 120 mL glass vial and was dissolved in 20 mL of acetone to obtain concentrated stock solutions. […] The concentrated stock solutions obtained were diluted with 20 mL of an aqueous mixture containing 0.01% Tween 20 (v/v). Application rates of ½×, ¼×, ⅛× and 1/16× of the high rate were obtained by injecting an appropriate amount of the stock solution into the aqueous layer of the paddy. Control plants were treated in the same manner with the solvent blank. The treated plants and control plants were placed in a greenhouse as described above and water was added as needed to maintain a paddy flood. After 20-22 days, the condition of the test plants as compared with that of the untreated plants was determined visually and scored on a scale of 0 to 100 percent where 0 corresponds to no injury and 100 corresponds to complete kill.

VERPE = Veronica persica = assay: Postemergence herbicidal activity in cereal crops, Veronica persica; conditions: post-emergence, 480 h, post-emergent, after 20-22 days; for pest or weed control at 35 g/ha: 35 g ai/ha; for pest or weed control at 17.5 g/ha: 17.5 g ai/ha; for pest or weed control at 70 g/ha: 70 g ai/ha
Protocol: (§2) Seeds of the desired test plant species were planted in Sun Gro MetroMix® 306 planting mixture, which typically has a pH of 6.0 to 6.8 and an organic matter content of about 30 percent, in plastic pots with a surface area of 103.2 square centimeters. When required to ensure good germination and healthy plants, a fungicide treatment and/or other chemical or physical treatment was applied. The plants were grown for 7-36 days in a greenhouse with an approximate 14 hour photoperiod which was maintained at about 18° C. during the day and 17° C. during the night. Nutrients and water were added on a regular basis and supplemental lighting was provided with overhead metal halide 1000-Watt lamps as necessary. The plants were employed for testing when they reached the second or third true leaf stage.
(§3) A weighed amount, determined by the highest rate to be tested, of each test compound was placed in a 25 mL glass vial and was dissolved in 8 mL of a 97:3 v/v mixture of acetone and DMSO to obtain concentrated stock solutions. […] The concentrated stock solutions obtained were diluted with 16 mL of an aqueous mixture containing acetone, water, isopropyl alcohol, DMSO, Agri-dex crop oil concentrate, and Triton X-77 surfactant in a 64.7:26.0:6.7:2.0:0.7:0.01 v/v ratio to obtain spray solutions containing the highest application rates. Additional application rates were obtained by serial dilution of 12 mL of the high rate solution into a solution containing 4 mL of 97:3 v/v mixture of acetone and DMSO and 8 mL of an aqueous mixture containing acetone, water, isopropyl alcohol, DMSO, Agri-dex crop oil concentrate, and Triton X-77 surfactant in a 48.5:39.0:10.0:1.5:1.0:0.02 v/v ratio to obtain ½×, ¼×, ⅛× and 1/16× rates of the high rate. Compound requirements are based upon a 12 mL application volume at a rate of 187 L/ha. Formulated compounds were applied to the plant material with an overhead Mandel track sprayer equipped with a 8002E nozzles calibrated to deliver 187 L/ha over an application area of 0.503 square meters at a spray height of 18 inches (43 cm) above average plant canopy height. Control plants were sprayed in the same manner with the blank.
(§4) The treated plants and control plants were placed in a greenhouse as described above and watered by sub-irrigation to prevent wash-off of the test compounds. After 20-22 days, the condition of the test plants as compared with that of the untreated plants was determined visually and scored on a scale of 0 to 100 percent where 0 corresponds to no injury and 100 corresponds to complete kill.

PAPRH = Papaver rhoeas = assay: Postemergence herbicidal activity in cereal crops, Papaver rhoeas; conditions: post-emergence, 480 h, post-emergent, after 20-22 days; for pest or weed control at 35 g/ha: 35 g ai/ha; for pest or weed control at 17.5 g/ha: 17.5 g ai/ha; for pest or weed control at 70 g/ha: 70 g ai/ha
Protocol: as §2, §3, §4

[2] = test system: HORVS = barley (Hordeum vulare); assay: Postemergence herbicidal activity in cereal crops, barley; conditions: post-emergence, 480 h, post-emergent, barley (crop), after 20-22 days; for pest or weed control at 35 g/ha: 35 g ai/ha; for pest or weed control at 17.5 g/ha: 17.5 g ai/ha; for pest or weed control at 70 g/ha: 70 g ai/ha
Protocol: as §2, §3, §4

[3] = test system: SCPJU = Scirpus juncoides; assay: Herbicidal activity in transplanted paddy rice, Scirpus juncoides; conditions: Schoenoplectiella juncoides, 480 h, water-injected paddy, after 20-22 days; for pest or weed control at 17.5 g/ha: 17.5 g ai/ha; for pest or weed control at 70 g/ha: 70 g ai/ha; for pest or weed control at 140 g/ha: 140 g ai/ha; for pest or weed control at 35 g/ha: 35 g ai/ha
Protocol: as §1

Structure (SMILES) | pest or weed control at 17.5 g/ha [1] [%] | pest or weed control at 35 g/ha (VERPE = Veronica persica) [%] | pest or weed control at 35 g/ha (PAPRH = Papaver rhoeas) [%] | pest or weed control at 35 g/ha [2] [%] | pest or weed control at 17.5 g/ha (VERPE = Veronica persica) [%] | pest or weed control at 17.5 g/ha (PAPRH = Papaver rhoeas) [%] | pest or weed control at 17.5 g/ha [2] [%] | pest or weed control at 70 g/ha (VERPE = Veronica persica) [%] | pest or weed control at 70 g/ha (PAPRH = Papaver rhoeas) [%] | pest or weed control at 70 g/ha [2] [%] | other results
CCOc1c(Cl)ccc(-c2nc(N)c(Cl)c(C(=O)OC)n2)c1F [Compound 1, 6-amino-5-chloro-2-(4-chloro-3-ethoxy-2-fluorophenyl)-pyrimidine-4-carboxylic acid methyl ester] | 95 | 20 | 100 | 0 | – | – | – | – | – | – | pest or weed control at 17.5 g/ha [3]: 50%
COC(=O)c1nc(-c2c(F)cc(Cl)c(OC)c2F)nc(N)c1Cl [Compound 2, 6-amino-5-chloro-2-(4-chloro-2,6-difluoro-3-methoxy-phenyl)pyrimidine-4-carboxylic acid methyl ester] | – | 50 | 100 | 0 | – | – | – | – | – | – | pest or weed control at 70 g/ha [1]: 75%; pest or weed control at 70 g/ha [3]: 20%
COC(=O)c1nc(-c2ccc(Cl)c(OC)c2F)nc(N)c1Cl [Compound 3, 6-amino-5-chloro-2-(4-chloro-2-fluoro-3-methoxyphenyl)-pyrimidine-4-carboxylic acid methyl ester] | 99 | – | – | – | 99 | 100 | 0 | – | – | – | pest or weed control at 17.5 g/ha [3]: 80%
COC(=O)c1nc(-c2ccc(Cl)c(OC)c2Cl)nc(N)c1Cl [Compound 6, 6-Amino-5-chloro-2-(2,4-dichloro-3-methoxyphenyl)pyrimidine-4-carboxylic acid methyl ester] | 90 | – | – | – | – | – | – | 99 | 99 | 0 | –
COC(=O)c1nc(-c2ccc(Cl)c(C(F)F)c2F)nc(N)c1Cl [Compound 7, 6-Amino-5-chloro-2-(4-chloro-3-difluoromethyl-2-fluorophenyl)pyrimidine-4-carboxylic acid methyl ester] | – | – | – | – | 95 | 95 | 0 | – | – | – | pest or weed control at 140 g/ha [1]: 100%; pest or weed control at 140 g/ha [3]: 90%
COC(=O)c1nc(-c2ccc(Cl)c(N(C)C)c2F)nc(N)c1Cl [Compound 8, 6-Amino-5-chloro-2-(4-chloro-3-dimethylamino-2-fluorophenyl)pyrimidine-4-carboxylic acid methyl ester] | – | 95 | 100 | 0 | – | – | – | – | – | – | pest or weed control at 35 g/ha [1]: 95%; pest or weed control at 35 g/ha [3]: 10%
COC(=O)c1nc(-c2ccc3c(c2F)OCO3)nc(N)c1Cl [Compound 9, 6-Amino-5-chloro-2-(4-fluorobenzo[1,3]dioxol-5-yl)pyrimidine-4-carboxylic acid methyl ester] | – | – | – | – | – | – | – | 30 | 40 | 0 | pest or weed control at 35 g/ha [1]: 100%; pest or weed control at 35 g/ha [3]: 70%
COC(=O)c1nc(-c2ccc(Cl)c(OCC(F)F)c2F)nc(N)c1Cl [Compound 10, 6-Amino-5-chloro-2-[4-chloro-3-(2,2-difluoroethoxy)-2-fluorophenyl]-pyrimidine-4-carboxylic acid methyl ester] | – | – | – | – | – | – | – | 20 | 95 | 0 | pest or weed control at 140 g/ha [1]: 95%; pest or weed control at 140 g/ha [3]: 40%
COC(=O)c1nc(-c2ccc(Cl)c(OC)c2F)nc(N)c1Br [Compound 13, 6-amino-5-bromo-2-(4-chloro-2-fluoro-3-methoxyphenyl)-pyrimidine-4-carboxylic acid methyl ester] | – | – | – | – | 95 | 100 | 0 | – | – | – | pest or weed control at 70 g/ha [1]: 85%; pest or weed control at 70 g/ha [3]: 60%
